Data from ChEMBL document CHEMBL3352391, “Trichormamides A and B with Antiproliferative Activity from the Cultured Freshwater Cyanobacterium Trichormus sp. UIC 10339” (J Nat Prod, 2014).

Key:
MDA-MB-435 = experiment: Antiproliferative activity against human MDA-MB-435 cells after 72 hrs by MTS assay; format: functional, cell-based; conditions: MDA-MB-435, 72 h
HT-29 = experiment: Antiproliferative activity against human HT-29 cells after 72 hrs by MTS assay; format: functional, cell-based; conditions: HT-29, 72 h

CCCCCCC[C@@H]1CC(=O)N[C@@H]([C@@H](C)CC)C(=O)N[C@H]([C@@H](O)C(C)C)C(=O)N[C@@H](CCO)C(=O)N[C@H]([C@@H](O)C(C)C)C(=O)N[C@@H](CCC(N)=O)C(=O)N(C)[C@@H]([C@@H](C)CC)C(=O)N[C@H](CO)C(=O)N[C@@H]([C@@H](C)O)C(=O)N2CCC[C@H]2C(=O)N[C@H](Cc2ccc(O)cc2)C(=O)N[C@@H]([C@@H](C)O)C(=O)N1
IC50 (MDA-MB-435): 800 nM | IC50 (HT-29): 1500 nM
